One data set has as its system NHEKs. The data set is described as follows: In vitro scratch assay (simulated wound closure, cell migration). It counts as cell-based, human. Particulars: for NHEK gap closure / level of wound closure vs control: compounds 10 and 20 μg/ml, extract 50 μg/ml, over 20 h, control growth media; for time of wound closure of keratinocyte compared to the control (growth media): after multiple different time intervals. The protocol: (§1) In Vitro Scratch Assay Cell migration was assessed through making a scratch on confluent monolayers of NHDFs and NHEKs. A total of 15×10^4 cells per well were seeded on a 24 well plate and left overnight to reach confluency. The cell layer was then scraped using a 200 μl pipet tip and any cell debris was washed away with PBS. The samples were supplemented with different concentration of the compounds of interest in growth media and incubated at 37° C. and 5% CO2 for 20 hours. Images were taken every 4 hours using a phase contrast Nikon Eclipse Ti-E inverted microscope. Quantification of percent wound healing was performed by measuring the gap distance using the following formula, [formula] where Wn is the width of gap after every 4 hours and W0 is the initial width zero right after forming a scratch. Capillary Tube Formation

Another data set relates to NHDFs. The description is as above. It counts as cell-based, human. The following applies: for time of wound closure of fibroblast compared to the control (growth media): after multiple different time intervals. How it is done:
as §1

A further data set concerns HUVECs. As to the kind of experiment: Capillary tube formation on matrigel. It counts as cell-based, human. Particulars: 10 and 20 μg/ml. How it is done: [formula] where Wn is the width of gap after every 4 hours and W0 is the initial width zero right after forming a scratch. Capillary Tube Formation Matrigel kept in a −20° C. freezer and thawed on ice overnight in a 4° C. refrigerator. A total of 50 μl of thawed matrigel was added to each well of pre-chilled 96-well plate and then incubated for 30 min at 37° C. to form a gel. Next, 100 μl of a HUVEC cell suspension (passage 2-6) in conditioned media (20000 cell/well) including the compounds of this invention was added to gel and incubated at 37° C. for 8 hours. The number of junctions in tubes was examined using a phase contrast inverted microscope (Invitrogen EVOS FL Auto Cell Imaging) and compared to the conditions with no compound (negative control).

Data set [1] deals with Normal Human Dermal Fibroblasts (NHDFs). The data set is described as follows: Cytotoxicity assay (MTS), cell viability/proliferation. Format: cell-based. The following applies: 24 h exposure, 10, 20, 50 and 100 μg/ml, vs control and DMSO vehicle control. How it is done:
(§2) Human Umbilical Vein Endothelial cells (HUVEC), Adult Normal Human Epidermal Keratinocytes (NHEK), Normal Human Dermal fibroblast (NHDF) and related media for cell culture including endothelial basal and growth medium-2 (EBM-2, EGM-2), keratinocyte basal and growth medium-2 (KBM-2, KGM™-2), fibroblast basal and growth medium (FBM, FGM™) were purchased from Lonza. The cell types were selected due to their important physiologic role in early and late stages of wound healing. Cells were incubated at 37° C. and 5% CO2 throughout the examples. Phosphate-Buffered Saline (PBS), [3-(4,5-dimethylthiazol-2-yl)-5-(3-carboxymethoxyphenyl)-2-(4-sulfophenyl)-2H-tetrazolium (MTS) (Promega) colorimetric assay and growth factor reduced matrigel BD (Corning) were from Sigma-Aldrich.
(§3) In order to determine cell viability, HUVECs, NHDFs, and NHEKs were cultured in their growth media to reach 80% confluency. Cells were seeded at the density of 5×10^3 cell per 96 well plate in a total volume of 100 μl in each well. After seeding, the cells were incubated for 24 hours at 37° C. and 5% CO2 to allow for cell attachment. Media was changed and replaced with media supplemented with the desired concentration of the test compounds (10, 20, 50 and 100 μg/ml), being first dissolved at 10 mg/ml in DMSO and subsequently diluted in culture media. The vehicle control was culture medium supplemented with DMSO 0.5% (Macron Fine Chemicals), representing the highest final concentration of DMSO used to dissolve the natural compound. Following 24 hours of incubation, […] and incubated for 2 hours.

Data set [2] relates to Human Umbilical Vein Endothelial Cells (HUVECs). The description is as above. It counts as cell-based. Particulars: 24 h exposure, 10, 20, 50 and 100 μg/ml, vs control and DMSO vehicle control. How it is done:
as §2, §3

Data set [3] deals with Normal Human Epidermal Keratinocytes (NHEKs). Described as above. It counts as cell-based. The following applies: 24 h exposure, 10, 20, 50 and 100 μg/ml, vs control and DMSO vehicle control. The protocol:
as §2, §3

For the compound `O=C(/C=C/c1ccc(O)c(O)c1)O[C@@H]1C[C@](O)(C(=O)O)C[C@@H](O)[C@H]1O` [3-O-caffeoylquinic acid], the “percentage of gap closed (simulated wound closure)” value in the data set on NHEKs (NHEKs, 10 μg/ml, 6 h) is reported as “approximately 40%”. In the data set with NHEKs (NHEKs), the “NHEK gap closure / level of wound closure vs control” value is “highest level of wound closure”. The “NHEK migration rate at higher concentration” value in the data set on NHEKs (NHEKs, higher concentration (20 μg/ml) vs 10 μg/ml) is “did not lead to a faster migration rate”. In addition, in the data set with NHEKs, the “time of wound closure of keratinocyte compared to the control (growth media)” value is reported as “reduced time of wound closure”. Besides, in the data set on NHDFs (NHDFs, compounds 10 and 20 μg/ml, extract 50 μg/ml, over 20 h), the “NHDF gap closure / migration into the scratched gap vs control” value is reported as “delayed effect on NHDF gap closure at 20 h post-seeding”. Also, the “time of wound closure of fibroblast compared to the control (growth media)” value in the data set on NHDFs is “reduced time of wound closure”. For the same compound, the “capillary tube (tubule) formation, phase contrast microscopy” value in the data set with HUVECs is “formation of tubules assembled by the elongation and joining of HUVECs”.
Consider `C[C@H]1O[C@@H](Oc2c(-c3cc(O)c(O)c(O)c3)oc3cc(O)cc(O)c3c2=O)[C@@H](O)[C@@H](O)[C@@H]1O` [myricetin-3-o-ß-rhamnoside], for which the “toxicity (cell viability, MTS assay)” value in data set [1], in data set [2] and in data set [3] was “No toxicity was observed” in each case. The “NHEK gap closure / level of wound closure vs control” value with NHEKs (NHEKs) was “Neither myricetin-3-o-ß-rhamnoside nor total P. persica extract led to a significantly higher NHEK gap closure than the control”. Also, the “time of wound closure of keratinocyte compared to the control (growth media)” value with NHEKs is listed as “reduced time of wound closure”. Besides, the NHDF gap closure result in the data set on NHDFs (NHDFs, 10 μg/ml, all time points up to 20 h) is listed as “accelerated gap closure at all time points”. The “NHDF wound closure at higher concentration” value with NHDFs (NHDFs, higher concentration (20 μg/ml), early time points) is “negative effect on wound closure during early time points”. Also, the “time of wound closure of fibroblast compared to the control (growth media)” value in the data set with NHDFs is “reduced time of wound closure”. Moreover, in the data set with HUVECs, the “capillary tube (tubule) formation, phase contrast microscopy” value was “formation of tubules assembled by the elongation and joining of HUVECs”. The “number of junctions relative to control groups” value in the data set with HUVECs (8 h) is recorded as “approximately 3 fold”.

The values are drawn from patent US11439655B2, “Compounds for use in wound healing and angiogenesis” (UNIVERSITY OF SOUTH CAROLINA, priority 2017, dated 2022).
